The values below come from US7169787B2, “7-azaindoles, use thereof as phosphodiesterase 4 inhibitors and method for producing the same” (Elbion AG, priority 2000, dated 2007).

Experiment [1] deals with release of TNFα from cells of nasal polyps. The experiment can be described thus: Inhibition of the release of TNFα from cells of nasal polyps (anti-IgE stimulated, ELISA). The experiment is classed as cell-based. The conditions noted are these: Homo sapiens, anti-IgE stimulated nasal polyp cells. The method, then: The experimental arrangement corresponds essentially to the method described by Campbell, A. M. and J. Bousquet (Anti-allergic activity of H1-blockers, Int. Arch. Allergy Immunol., 1993, 101, 308–310). Nasal polyps form the starting material (material from patients, who had been subjected to a surgical treatment).
The tissue is washed with RPMI 1640 and subsequently digested with protease (2.0 mg/mL), collagenase (1.5 mg/mL), hyaluronidase (0.75 mg/mL), and DNAse (0.05 mg/mL) for two hours at 37° C. (1 g of tissue and 4 mL of RPMI 1640 with enzymes). The cells obtained, a mixture of epithelial cells, monocytes, macrophages, lymphocytes, fibroblasts and granulocytes, are filtered and washed by being centrifuged repeatedly in culture solution and sensitized passively by the addition of human IgE and the cell suspension is brought to a concentration of 2 million cells/mL in RPMI 1640 (supplemented by antibiotics, 10% fetal calf serum, 2 mM of glutamine and 25 mM of Hepes). This suspension is distributed on six-well cell culture plates (1 ml/well). The cells are pre-incubated for 30 minutes with the test substances in different final concentrations and subsequently stimulated to release TNFα by the addition of anti-IgE (7.2 μg/mL). The maximum release into the culture medium takes place after about 18 hours. During this period, the cells are incubated at 37° C. and 5% carbon dioxide. The culture medium (supernatant) is recovered by centrifuging (five minutes at 4000 rpm) and kept at −70° C. until the cytokin is determined. The TNFα in the supernatant is determined with so-called sandwich ELISAs (basic material Pharmingen), with which cytokin concentrations ranging from 30 to 1000 pg/mL can be determined.
Cells, not stimulated with anti IgE, hardly produce any TNFα; on the other hand, stimulated cells secrete large amounts of TNFα, which can be reduced, for example, by PDE 4 inhibitors as a function of the dose. From the percentage inhibition (TNFα release by the cells, stimulated with anti IgE=100%) of the substances tested at different concentrations, the IC50 (concentration at 50% inhibition) is calculated.

Experiment [2] has as its system actively sensitized Brown Norway Rats. Briefly: Inhibition of the late phase eosinophilia 48 hours after inhalative ovalbumin challenge. The experiment is classed as in vivo, rat. The conditions noted are these: 2 h before allergen challenge, BAL 48 h after challenge. The method, then: The inhibition of pulmonary eosinophilia infiltration by the inventive substances is tested on male Brown Norway Rats (200–250 g), which had been actively sensitized against ovalbumin (OVA). The rats were sensitized by subcutaneous injections of a suspension of 10 μg OVA together with 20 mg of aluminum hydroxide as adjuvant in 0.5 mL of physiological salt solution per animal on days 1, 14 and 21. In addition, the animals at the same time received Bordetella pertussis vaccine dilution injected 0.25 mL i.p. per animal. On the 28th day of the experiment, the animals are placed individually in open 1 L Plexiglas boxes, which are connected to a head-nose exposure device. The animals are exposed to an aerosol of 1.0% ovalbumin suspension (allergen challenge). The ovalbumin aerosol is produced by a nebulizer (Bird Micronebulizer, Palm Springs Calif., USA), which is operated with compressed air (0.2 MPa). The exposure time is one hour, normal controls being nebulized also for one hour with an aerosol of 0.9% salt solution.
Forty-eight hours after the allergen challenge, there is a massive migration of eosinophilic granulocytes into the lungs of the animals. At this time, the animals are anesthetized with an excess of ethyl urethane (1.5 g/kg of body weight i.p.) and a bronchoalveolar lavage (BAL) with 3×4 mL of Hank's balance solution is carried out. The total cell count and the number of eosinophilic granulocytes of the pooled BAL liquid are subsequently determined with an automatic cell differentiation instrument (Bayer Diagnostics Technicon HIE). For each animal, the eosinophiles (EOS) in the BAL are calculated in millions/animal: EOS/μl×BAL recovery (mL)=EOS/animal.
For each test, 2 control groups were run (nebulization with physiological salt solution and nebulization with OVA solution).
The percentage inhibition of the eosinophilia of the experimental group, treated with substance, was calculated according to the following formula: {((OVAC−SC)−(OVAD−SC))/(OVAC−SC)}×100%=% inhibition (SC=vehicle-treated control group challenged with 0.9% salt solution; OVAC=vehicle-treated control group challenged with 1% ovalbumin suspension; OVAD=substance-treated experimental group challenged with 1% ovalbumin suspension)
The test substances are applied i.p. or orally as a suspension in 10% polyethylene glycol 300 and 0.5% 5-hydroxyethylcellulose for two hours before the allergen challenge. The control groups are treated with the vehicle in accordance with the application form of the test substance.

Another experiment has as its system Lewis Rats. Briefly: Inhibition of the lipopolysaccharide (LPS)-induced lung neutrophilia. The experiment is classed as in vivo, rat. The conditions noted are these: 1 mg/kg p.o., 2 h before LPS provocation; BAL 6 h after provocation. The method, then:
The inhibition of pulmonary neutrophil infiltration by the inventive substances is tested on male Lewis Rats (250–350 g). On the day of the experiments, the animals are placed individually in open 1 L Plexiglas boxes, which are connected to a head-nose exposure device. The animals are exposed to an aerosol of a lipopolysaccharide suspension (100 μg LPS/mL of 0.1% hydroxylamine solution) in PBS (LPS provocation). The LPS/hydroxylamine aerosol is nebulized by a nebulizer (Bird Micronebulizer, Palm Springs Calif., USA), which is operated with compressed air (0.2 MPa). The exposure time is 40 minutes, normal controls being nebulized also for 40 minutes with an aerosol of 0.1% hydroxylamine solution in PBS.
Six hours after the LPS provocation, there is a maximum, massive migration of neutrophil granulocytes into the lungs of the animals. At this time, the animals are anesthetized with an excess of ethyl urethane (1.5 g/kg of body weight i.p.) and a bronchoalveolar lavage (BAL) with 3×4 mL of Hank's balance solution is carried out. The total cell count and the number of neutrophil granulocytes of the pooled BAL liquid are subsequently determined with an automatic cell differentiation instrument (Bayer Diagnostics Technicon HIE). For each animal, the neutrophiles (NEUTRO) in the BAL are calculated in millions/animal: NEUTRO/μl×BAL recovery (mL)=NEUTRO/animal.
For each test, 2 control groups were also run (nebulization with 0.1% hydroxylamine solution in PBS and nebulization with 100 μg LPS/mL of 0.1% hydroxylamine solution in PBS).
The percentage inhibition of the neutrophilia of the experimental group, treated with substance, was calculated according to the following formula: {((LPSC−SC)−(LPSD−SC))/(LPSC−SC)}×100%=% inhibition SC=vehicle-treated control group challenged with 0.1% hydroxylamine solution; LPSC=vehicle-treated control group challenged with LPS (100 μg/mL 0.1% hydroxylamine solution); LPSD=substance-treated experimental group challenged with LPS (100 μg/mL 0.1% hydroxylamine solution) […]

A word on the inhibition: it is the relative decrease from the control value, in per cent. A lower inhibition goes with little suppression. In experiment [1] (concentration 1.0 μmole/L), `CC(C)Cn1cc(C(=O)C(=O)Nc2c(Cl)cncc2Cl)c2cccnc21` [Example 27] showed an inhibition at 1 µM of 91%. The “Inhibition of Eosinophilia” value in experiment [2] (10 mg/kg i.p.) is 50%; in experiment [2] (10 mg/kg p.o.), 70%. In addition, the “Inhibition of neutrophilia (table titled Inhibition of Eosinophilia)” value with Lewis Rats worked out at 52%.
Take `O=C(Nc1c(Cl)cncc1Cl)C(=O)c1cn(Cc2ccc(F)cc2)c2ncccc12` [Example 14]: testing at 0.3 µM in experiment [1] (concentration 0.3 μmole/L) gave an inhibition of 92%. Further, the “Inhibition of Eosinophilia” value is given as 62% in experiment [2] (10 mg/kg i.p.) and 59% in experiment [2] (10 mg/kg p.o.). Besides, the “Inhibition of neutrophilia (table titled Inhibition of Eosinophilia)” value in the experiment on Lewis Rats is 80%.
